From patent US11725000B2, “Apoptosis inhibitors” (National Institute of Biological Sciences, Beijing, priority 2017, dated 2023) come the findings set out here.

The assay deals with U2OS_Bim cells. In words: Apoptosis inhibition assay (Bim-induced apoptosis, cell viability by ATP level). Format: cell-based. To be noted: U2OS_Bim cells; means of duplicates; numbering of Tables 4a/4b; read-out: EC50. The procedure, abridged: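 Apoptosis was triggered by doxycycline (0.1 μg/mL) induction of Bim, one hour after compound addition to U2OS_Bim cells. Survival was measured after 24 h from cellular ATP (CellTiter-Glo), relative to DMSO, with zVAD at 20 μM as rescue control. Data are duplicate means, some estimated from preliminary results.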

A value given as a limit tells only on which side of the number the result lay.

Usually EC50 stands for the concentration giving half of the maximal effect. On to `COc1ccc(Cn2cc(-c3cc(C(F)(F)F)nc(S(=O)(=O)CCCC(=O)N4CCCCC4)n3)ccc2=O)cc1OC` [Compound 155, 1-(3,4-dimethoxybenzyl)-5-(2-((4-oxo-4-(piperidin-1-yl)butyl)sulfonyl)-6-(trifluoromethyl)pyrimidin-4-yl)pyridin-2 (1H)-one], for which the EC50 lay in the range of 1 to 1000 nM.

Regarding `COc1ccc(Cn2cc(-c3cc(C(F)(F)F)nc(S(=O)(=O)CCCC(=O)N4CCOCC4)n3)ccc2=O)cc1OC` [Compound 156, 1-(3,4-dimethoxybenzyl)-5-(2-((4-morpholino-4-oxobutyl)sulfonyl)-6-(trifluoromethyl)pyrimidin-4-yl)pyridin-2 (1H)-one], the concentration giving a half-maximal response (EC50) lay within 1 to 1000 nM. Turning to `COc1cc(Cl)c(Cn2cc(-c3cc(C(F)(F)F)nc(S(=O)(=O)CCCC(=O)N4CCOCC4)n3)ccc2=O)cc1OC` [Compound 157, 1-(2-chloro-4,5-dimethoxybenzyl)-5-(2-((4-morpholino-4-oxobutyl)sulfonyl)-6-(trifluoromethyl)pyrimidin-4-yl)pyridin-2 (1H)-one], the concentration for a half-maximal effect (EC50) fell in the range of 1 to 1000 nM. In the case of `COc1ccc(Cn2cc(-c3cc(C(F)(F)F)nc(S(=O)(=O)CCCC(N)=O)n3)ccc2=O)cc1OC` [Compound 158, 4-((4-(1-(3,4-dimethoxybenzyl)-6-oxo-1,6-dihydropyridin-3-yl)-6-(trifluoromethyl)pyrimidin-2-yl)sulfonyl)butanamide] it was < 100000 nM; in that of `COc1ccc(Cn2cc(-c3cc(C(F)(F)F)nc([S+]([O-])CCCC(N)=O)n3)ccc2=O)cc1OC` (stereo not drawn) [Compound 159, 4-((4-(1-(3,4-dimethoxybenzyl)-6-oxo-1,6-dihydropyridin-3-yl)-6-(trifluoromethyl)pyrimidin-2-yl)sulfinyl)butanamide], < 100000 nM; in that of `COc1ccc(Cn2cc(-c3cc(C(F)F)nc(S(C)(=O)=O)n3)ccc2=O)cc1OC` [Compound 160, 5-(6-(difluoromethyl)-2-(methylsulfonyl)pyrimidin-4-yl)-1-(3,4-dimethoxybenzyl)pyridin-2 (1H)-one], 1 to 1000 nM.

As for `COc1ccc(Cn2cc(-c3cc(CF)nc(S(C)(=O)=O)n3)ccc2=O)cc1OC` [Compound 161, 5-(6-(fluoromethyl)-2-(methylsulfonyl)pyrimidin-4-yl)-1-(3,4-dimethoxybenzyl)pyridin-2 (1H)-one], the 50% effective concentration (EC50) is 1 to 1000 nM. `COc1ccc(Cn2cc(-c3nc(S(C)(=O)=O)nc(C(F)(F)F)c3Cl)ccc2=O)cc1OC` [Compound 162, 5-(5-chloro-2-(methylsulfonyl)-6-(trifluoromethyl)pyrimidin-4-yl)-1-(3,4-dimethoxybenzyl)pyridin-2 (1H)-one]: the EC50 lay in the range of 1 to 1000 nM. As for `COc1ccc(Cn2cc(-c3cc(C(C)=O)nc(S(C)(=O)=O)n3)ccc2=O)cc1OC` [Compound 163, 5-(6-acetyl-2-(methylsulfonyl)pyrimidin-4-yl)-1-(3,4-dimethoxybenzyl)pyridin-2 (1H)-one], the EC50 was in the range of 1 to 1000 nM. In the case of `COc1ccc(Cn2cc(-c3cc(C(C)(F)F)nc(S(C)(=O)=O)n3)ccc2=O)cc1OC` [Compound 164, 5-(6-(1,1-difluoroethyl)-2-(methylsulfonyl)pyrimidin-4-yl)-1-(3,4-dimethoxybenzyl)pyridin-2 (1H)-one] it was 1 to 1000 nM; in that of `COc1ccc(Cn2cc(-c3cc(C(F)F)nc(S(C)(=O)=O)n3)cc(F)c2=O)cc1OC` [Compound 165, 5-(6-(difluoromethyl)-2-(methylsulfonyl)pyrimidin-4-yl)-1-(3,4-dimethoxybenzyl)-3-fluoropyridin-2 (1H)-one], 1 to 1000 nM; in that of `COc1ccc(Cn2cc(-c3cc(C)nc(S(=O)(=O)CC(F)(F)F)n3)ccc2=O)cc1OC` [Compound 166, 1-(3,4-dimethoxybenzyl)-5-(6-methyl-2-((2,2,2-trifluoroethyl)sulfonyl)pyrimidin-4-yl)pyridin-2 (1H)-one], 1000 to 10000 nM. In the case of `COc1ccc(Cn2cc(-c3cc(C(F)F)nc(S(C)(=O)=O)n3)ccc2=O)cc1F` [Compound 167, 5-(6-(difluoromethyl)-2-(methylsulfonyl)pyrimidin-4-yl)-1-(3-fluoro-4-methoxybenzyl)pyridin-2 (11H)-one] it was 1 to 1000 nM; in that of `COc1ccc(Cn2cc(-c3cc(C(F)F)nc([S+](C)[O-])n3)ccc2=O)cc1F` (stereo not drawn) [Compound 168, 5-(6-(difluoromethyl)-2-(methylsulfinyl)pyrimidin-4-yl)-1-(3-fluoro-4-methoxybenzyl)pyridin-2 (1H)-one], 1 to 1000 nM. As for `COc1ccc(Cn2cc(-c3cc(C(F)F)nc(S(C)(=O)=O)n3)ccc2=O)cc1C(F)(F)F` [Compound 169, 5-(6-(difluoromethyl)-2-(methylsulfonyl)pyrimidin-4-yl)-1-(4-methoxy-3-(trifluoromethyl)benzyl)pyridin-2 (1H)-one], the EC50 lay in the range of 1 to 1000 nM. In the case of `COc1ccc(Cn2cc(-c3cc(C(F)F)nc([S+](C)[O-])n3)ccc2=O)cc1C(F)(F)F` (stereo not drawn) [Compound 170, 5-(6-(difluoromethyl)-2-(methylsulfinyl)pyrimidin-4-yl)-1-(4-methoxy-3-(trifluoromethyl)benzyl)pyridin-2 (1H)-one] it was 1 to 1000 nM. In the case of `COc1cc(Cn2cc(-c3cc(C(F)F)nc(SC)n3)ccc2=O)cc(F)c1OC` [Compound 171, 5-(6-(difluoromethyl)-2-(methylthio)pyrimidin-4-yl)-1-(3-fluoro-4,5-dimethoxybenzyl)pyridin-2 (1H)-one] it was 1 to 1000 nM.

Consider `COc1cccc(CS(=O)(=O)c2nc(-c3ccc(=O)n(Cc4ccc(OC)c(OC)c4)c3)cc(C(F)F)n2)c1` [Compound 172, 5-(6-(difluoromethyl)-2-((3-methoxybenzyl)sulfonyl)pyrimidin-4-yl)-1-(3,4-dimethoxybenzyl)pyridin-2 (1H)-one], for which the EC50 lay in the range of 1 to 1000 nM. As to `COc1cccc(C[S+]([O-])c2nc(-c3ccc(=O)n(Cc4ccc(OC)c(OC)c4)c3)cc(C(F)F)n2)c1` (stereo not drawn) [Compound 173, 5-(6-(difluoromethyl)-2-((3-methoxybenzyl)sulfinyl)pyrimidin-4-yl)-1-(3,4-dimethoxybenzyl)pyridin-2 (1H)-one], the EC50 was in the range of 1000 to 10000 nM. Consider `COc1cccc(S(=O)(=O)c2nc(-c3ccc(=O)n(Cc4ccc(OC)c(OC)c4)c3)cc(C(F)F)n2)c1` [Compound 174, 5-(6-(difluoromethyl)-2-((3-methoxyphenyl)sulfonyl)pyrimidin-4-yl)-1-(3,4-dimethoxybenzyl)pyridin-2 (1H)-one], for which the concentration for a half-maximal effect (EC50) lay within 1 to 1000 nM. `COc1cccc([S+]([O-])c2nc(-c3ccc(=O)n(Cc4ccc(OC)c(OC)c4)c3)cc(C(F)F)n2)c1` (stereo not drawn) [Compound 175, 5-(6-(difluoromethyl)-2-((3-methoxyphenyl)sulfinyl)pyrimidin-4-yl)-1-(3,4-dimethoxybenzyl)pyridin-2 (1H)-one]: the EC50 was 1 to 1000 nM. In the case of `CNC(=O)CCCS(=O)(=O)c1nc(-c2ccc(=O)n(Cc3ccc(OC)c(OC)c3)c2)cc(C(F)F)n1` [Compound 176, 4-((4-(difluoromethyl)-6-(1-(3,4-dimethoxybenzyl)-6-oxo-1,6-dihydropyridin-3-yl)pyrimidin-2-yl)sulfonyl)-N-methylbutanamide] it was 1000 to 10000 nM. In the case of `CNC(=O)CCC[S+]([O-])c1nc(-c2ccc(=O)n(Cc3ccc(OC)c(OC)c3)c2)cc(C(F)F)n1` (stereo not drawn) [Compound 177, 4-((4-(difluoromethyl)-6-(1-(3,4-dimethoxybenzyl)-6-oxo-1,6-dihydropyridin-3-yl)pyrimidin-2-yl)sulfinyl)-N-methylbutanamide] it was < 100000 nM. Regarding `CNS(=O)(=O)CCCS(=O)(=O)c1nc(-c2ccc(=O)n(Cc3ccc(OC)c(OC)c3)c2)cc(C(F)F)n1` [Compound 178, 3-((4-(difluoromethyl)-6-(1-(3,4-dimethoxybenzyl)-6-oxo-1,6-dihydropyridin-3-yl)pyrimidin-2-yl)sulfonyl)-N-methylpropane-1-sulfonamide], the concentration for a half-maximal effect (EC50) is 1 to 1000 nM. In the case of `CNS(=O)(=O)CCC[S+]([O-])c1nc(-c2ccc(=O)n(Cc3ccc(OC)c(OC)c3)c2)cc(C(F)F)n1` (stereo not drawn) [Compound 179, 3-((4-(difluoromethyl)-6-(1-(3,4-dimethoxybenzyl)-6-oxo-1,6-dihydropyridin-3-yl)pyrimidin-2-yl)sulfinyl)-N-methylpropane-1-sulfonamide] it was < 100000 nM; in that of `COc1ccc(Cn2cc(-c3cc(C(F)F)nc(S(=O)(=O)c4cccc(N)c4)n3)ccc2=O)cc1OC` [Compound 180, 5-(2-((3-aminophenyl)sulfonyl)-6-(difluoromethyl)pyrimidin-4-yl)-1-(3,4-dimethoxybenzyl)pyridin-2 (1H)-one], 1 to 1000 nM; in that of `COc1ccc(Cn2cc(-c3cc(C(F)F)nc([S+]([O-])c4cccc(N)c4)n3)ccc2=O)cc1OC` (stereo not drawn) [Compound 181, 5-(2-((3-aminophenyl)sulfinyl)-6-(difluoromethyl)pyrimidin-4-yl)-1-(3,4-dimethoxybenzyl)pyridin-2 (1H)-one], 1 to 1000 nM. In the case of `COc1ccc(Cn2cc(-c3cc(C(F)F)nc(S(=O)(=O)c4cccc(NC(C)=O)c4)n3)ccc2=O)cc1OC` [Compound 182, N-(3-((4-(difluoromethyl)-6-(1-(3,4-dimethoxybenzyl)-6-oxo-1,6-dihydropyridin-3-yl)pyrimidin-2-yl)sulfonyl)phenyl)acetamide] it was 1 to 1000 nM; in that of `CCCCCCNC(=O)CCCS(=O)(=O)c1nc(-c2ccc(=O)n(Cc3ccc(OC)c(OC)c3)c2)cc(C(F)F)n1` [Compound 183, 4-((4-(difluoromethyl)-6-(1-(3,4-dimethoxybenzyl)-6-oxo-1,6-dihydropyridin-3-yl)pyrimidin-2-yl)sulfonyl)-N-hexylbutanamide], 1 to 1000 nM.

Turning to `CCCCCCNC(=O)CCC[S+]([O-])c1nc(-c2ccc(=O)n(Cc3ccc(OC)c(OC)c3)c2)cc(C(F)F)n1` (stereo not drawn) [Compound 184, 4-((4-(difluoromethyl)-6-(1-(3,4-dimethoxybenzyl)-6-oxo-1,6-dihydropyridin-3-yl)pyrimidin-2-yl)sulfinyl)-N-hexylbutanamide], the EC50 lay within 1 to 1000 nM.
